Assay results published in patent US20180267043A1, “USE OF BIOMARKERS FOR PREDICTING CLINICAL SENSITIVITY TO CANCER TREATMENT” (CELGENE CORPORATION, priority 2014, published 2018).

Columns and labels:
PERK pathway of UPR = assay: RNA level of PERK pathway components in 293FT HEK cells; type: cell-based, human; details: parental and control shRNA cells, 1 nM or 10 nM, 24 hours
Description: The mechanism of Compound C-induced Unfolded Protein Response (UPR) was studied in 293FT HEK cells. Parental cells, CRBN−/− cells, cells expressing control shRNA, or cells expressing GSPT1-specific shRNA were treated with DMSO, 1 nM, or 10 nM Compound C. The RNA level of variant cellular components along the PERK pathway of UPR was measured and normalized with GAPDH at 24 hours after treatment.

[1] = test system: KG1, DF15, AML3, and 293FT; assay: Sensitivity to compound-induced ER stress and apoptosis, KG1, DF15, AML3, 293FT; type: cell-based, human
Description: (§1) The GSPT1 dependency was shown by GSPT1-specific shRNA knockdown experiment. The GSPT1 degradation efficiency was shown by Western Blot. The induction of ATF3 or DDIT3 was measured by quantitative RT-PCR. […] Time needed for Compound C-induced ER stress or Compound C-induced apoptosis was summarized. […] High ER demand may contribute to the sensitivity of certain cancer cells to the treatment of Compound C.

XBP1 and ATF6 pathways = assay: RNA level of XBP1 and ATF6 pathway components in DF15 MM cells; type: cell-based, human; details: DF15, 20 nM, 5, 10, or 23 hours
Description: The mechanism of Compound C-activated XBP1 and ATF6 pathways was studied in DF15 MM cells. Cells were treated with DMSO or 20 nM Compound C for 5, 10, or 23 hours. The RNA level of variant cellular components along the XBP1 and ATF6 pathways was measured and normalized with GAPDH.

RPMI-8226 = assay: Sensitivity to compound-induced ER stress and apoptosis, RPMI-8226; type: cell-based, human
Description: as §1

[2] = test system: GSPT1, UPR or apoptosis pathways; assay: Protein level of UPR and apoptosis components in KG1 cells; type: cell-based, human
Description: Cells were treated with DMSO alone or 20 nM Compound C. The expression levels of various cellular components along UPR or apoptosis pathways were measured at various time points post treatment.

[3] = test system: Human Acute Myeloblastic Leukemia Cell Line KG1; assay: Anti-proliferative effect after GSPT1 knockdown, KG1 (FIG. 12A); type: cell-based
GSPT1 and eRF1 [4] = biological target: T1, GSPT1 and eRF1 (Homo sapiens, UniProt P15170+); assay: Immunoblotting of GSPT1 and eRF1 in 293FT HEK cells; type: cell-based
T1 construct: endogenous in cells; host or cells: 293FT HEK cells
Description: (§2) CRBN+/+(293FT parental) cells were treated in parallel with CRBN−/− (CRISPR) cells, CRBN−/− cells expressing CRBN isoform 2, and CRBN−/− cells expressing CRBN isoform 2 with a W385A mutation.

GSPT1 and eRF1 [5] = assay: as above; type: cell-based, human; details: CRBN−/− cells with CRBNiso2 or CRBNiso2 W385A mutant
Description: as §2

Molm13 = assay: CellTiter-Glo cell viability assay, Molm13; type: cell-based, human; details: 48 hours
Description: The effect of overexpression of GSPT1 on the anti-proliferative effect of Compound C was determined in human histiocytic lymphoma cell line U937 and human leukemia cell line Molm13. Treatment compounds were titrated from 0.1 nM to 1 μM. Cell proliferation was measured by CellTiter-Glo cell viability assay at 48 hours after treatment.

[6] = test system: normal peripheral blood mononuclear cell (PBMC); assay: Response of normal PBMC: GSPT1, ATF3, DDIT3 and apoptosis indicators; type: cell-based; details: 20 hours
Description: The response of PBMC to Compound C treatment was monitored by measuring the expression of GSPT1, ATF3, DDIT3, and downstream apoptosis indicators in PBMC. PBMCs were treated with 1 nM, 10 nM, 100 nM, or 1000 nM of Compound C for 20 hours. […] Thus, GSPT1, ATF3, DDIT3, cleaved Caspase-3, and cleaved PARP can serve as biomarkers predicting the toxicity of Compound C.

[7] = test system: CRBN and its substrates IKZF1, GSPT1, GSPT2; assay: In vitro binding assay, anti-HA immunoprecipitation and immunoblotting; details: cell lysates
Description: CRBN−/− cells expressing HA-tagged substrates were lysed and incubated with anti-HA antibody to pull down substrates. CRBN positive cells expressing shGSPT1 that specifically knocks down GSPT1 were lysed, then mixed with the substrates obtained from CRBN−/− cells. The mixture was incubated with DMSO alone or compounds. Immunoprecipitation using anti-HA antibody was performed. Then, immunoblotting was performed using anti-CRBN or anti-HA antibodies.

PERK/EIF2a/ATF4 pathway = assay: mRNA level of PERK/EIF2a/ATF4 pathway components in KG1 cells; type: cell-based, human; details: KG1 cells (FIG. 18C)
FLAG-HA tagged CRBN = biological target: T2, FLAG-HA tagged CRBN (Homo sapiens, UniProt Q96SW2); assay: Anti-FLAG immunoprecipitation of FLAG-HA CRBN from 293 HEK lysate, mass spectrometry; type: binding; details: 1 μM, whole cell lysate of 293 HEK cells, vs DMSO
T2 construct: HA; expressed in transfected cells
Description: Whole cell lysate of 293 HEK cells stably expressing FLAG-HA tagged CRBN was treated with 1 μM Compound C or DMSO vehicle control. Proteins associated with FLAG-HA CRBN were immunoprecipitated with anti-FLAG affinity gel, separated on SDS-PAGE, silver-stained, and analyzed by mass spectrometry. […] Arrows point to the expected positions of DDB1, GSPT1, PABP1, and CRBN.

[8] = test system: Aiolos, CK1a, GSPT1 in OCI-LY10; assay: Western blot analysis in lymphoma cell line OCI-LY10; type: cell-based; details: OCI-LY10, 100 μM Compound C, 6 hours
Text: Cells were harvested with RIPA buffer, and proteins from cell lysates were separated by 10% sodium dodecyl sulfate polyacrylamide (SDS-PAGE) gel electrophoresis (Bio-Rad), then transferred to PVDF membranes (Invitrogen). Immunoblots were probed with antibodies recognizing Aiolos (9-9-7; Celgene), CK1a (Abcam), GSPT1 (Sigma), ZFP91 (LSBio) and β-actin (Li-Cor). Signals were detected with a Li-Cor Odyssey imager.

[9] = PBMC, 1 nM, 10 nM, 100 nM, or 1000 nM

T2 sequence (Q96SW2 whole entry): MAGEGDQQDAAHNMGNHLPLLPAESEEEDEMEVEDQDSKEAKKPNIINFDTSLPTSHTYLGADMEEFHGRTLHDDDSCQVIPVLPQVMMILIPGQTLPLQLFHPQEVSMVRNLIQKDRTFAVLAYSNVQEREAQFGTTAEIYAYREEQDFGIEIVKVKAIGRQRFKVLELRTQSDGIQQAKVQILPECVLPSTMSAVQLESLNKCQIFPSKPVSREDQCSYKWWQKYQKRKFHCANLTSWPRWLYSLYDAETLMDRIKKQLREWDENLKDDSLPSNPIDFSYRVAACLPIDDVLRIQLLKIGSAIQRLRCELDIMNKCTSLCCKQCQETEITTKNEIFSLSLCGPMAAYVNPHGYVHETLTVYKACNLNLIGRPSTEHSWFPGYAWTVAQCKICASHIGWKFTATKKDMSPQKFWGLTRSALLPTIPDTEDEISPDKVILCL

Cc1ccc(NC(=O)NCc2ccc3c(c2)CN(C2CCC(=O)NC2=O)C3=O)cc1Cl (centres unmarked) [Compound C, 1-(3-chloro-4-methylphenyl)-3-((2-(2,6-dioxopiperidin-3-yl)-1-oxoisoindolin-5-yl)methyl)urea]
RNA level of ATF4, ATF3, DDIT3, PPP1R15A, and GADD45A normalized with GAPDH (PERK pathway of UPR): induces expression of ATF4, ATF3, DDIT3, PPP1R15A, and GADD45A
Sensitivity to the compound ([1]; KG1, DF15, AML3, and 293FT): exhibit different levels of sensitivity to Compound C
Order in time of compound-induced ER stress and apoptosis ([1]; cancer cell lines of FIG. 21): Compound C-induced ER stress precedes Compound C-induced apoptosis
RNA level of ATF6 pathway components (XBP1, EDEM1, HYOU1, HSPA5) (XBP1 and ATF6 pathways): induces expression
RNA level of XBP1 pathway components (SEC24D, DNAJB9, XBP1, EDEM1, HYOU1) (XBP1 and ATF6 pathways): induces expression
Sensitivity to compound-induced ER stress and apoptosis (RPMI-8226): resistant to Compound C-induced ER stress and apoptosis
Levels of Mcl-1 and pS112-BAD ([2]; KG1 (FIG. 18B)): decrease in response to Compound C treatment
Levels of cleaved Caspase-8, BID, cleaved Caspase-9, cleaved Caspase-3, cleaved Caspase-7, and cleaved PARP ([2]; KG1 (FIG. 18B)): increase in response to Compound C treatment
Degradation of GSPT1 ([2]; KG1, 20 nM): induced degradation of GSPT1
Expression of ATF-4 and ATF-3 ([2]; KG1, 20 nM): increased the expression of ATF-4 and its downstream target ATF-3
Levels of pEIF2α, DDIT3, cleaved Caspase-3, and cleaved PARP ([2]; KG1, 20 nM): also increased
Anti-proliferative effect ([3]; KG1 (FIG. 12A)): exhibited anti-proliferative effect
Anti-proliferative effect ([3]; KG1, GSPT1 downregulated by shGSPT1-1 or shGSPT1-3): the anti-proliferative effect increased
Degradation of GSPT1 and eRF1 (GSPT1 and eRF1 [4]; CRBN+/+ (293FT parental) cells): induces degradation of GSPT1 and eRF1 in CRBN+/+ cells
Degradation of GSPT1 and eRF1 (GSPT1 and eRF1 [4]; CRBN+/+ cells with overexpression of GSPT1): reduces this degradation effect
Degradation of GSPT1 and eRF1 (GSPT1 and eRF1 [5]): restores Compound C-induced degradation of GSPT1 and eRF1
Anti-proliferative effect (Molm13; Molm13, exogenous GSPT1 overproduced via EF1a promoter): the anti-proliferative effect of Compound C reduces
Anti-proliferative effect (Molm13; Molm13 CRBN −/− cells): completely abolished
Cell proliferation (Molm13; Molm13 parental cells, 0.1 nM to 1 μM): inhibits cell proliferation
Cleaved Caspase-3 [6, 9]: increasing cleaved Caspase-3
Expression of GSPT1 [6, 9]: decreases the expression of GSPT1
Level of p-EIF2α, ATF3 and DDIT3 [6, 9]: increases the level
Apoptosis ([6]; normal PBMC): induces apoptosis
Interaction between CRBN and GSPT1 or GSPT2 [7]: promotes the interaction
Interaction between CRBN and IKZF1 [7]: promotes the interaction
mRNA level of ATF4, ATF3, DDIT3, PPP1R15A, GADD45A, TNFRSF1B, and TNFRSF10B (PERK/EIF2a/ATF4 pathway): Compound C-induced expression of ATF4, ATF3, DDIT3, PPP1R15A, GADD45A, TNFRSF1B, and TNFRSF10B
Proteins associated with FLAG-HA CRBN identified as CAPs (FLAG-HA tagged CRBN): PABP1, GSPT1/eRF3a, GSPT2/eRF3b, and HBS1L/eRF3c were identified as CAPs only when CRBN was bound with Compound C
Aiolos and CK1a protein levels [8]: also reduce
GSPT1 protein level [8]: reduces
